According to patent US10052333B2, “Methods and systems for the delivery of a therapeutic agent” (HANANJA EHF, priority 2007, dated 2018):

Key:
[1] = Viscosity of formulation components; assay type: physicochemical; settings: neat component as listed in formulation tables
[2] = after nasal administration, adults; cited from earlier work
[3] = Intranasal versus intravenous pharmacokinetics in New Zealand White rabbits; settings: 5 mg/mL in mPEG 350, 50 μL into each nasal cavity
Description: In this Example, 10 mg lorazepam is dissolved in 2 mL of mPEG 350 using ultrasound to obtain a solution containing 5 mg/mL of lorazepam. 50 μL of the resulting composition is administered into each nasal cavity of male New Zealand White rabbits held in a supine position during, and then one minute after application. An Eppendorf pipette is used for each application. After administration, blood samples then are harvested from a marginal ear vein at 0, 2, 5, 10, 15, 30 and 60 minutes, and the lorazepam concentration determined by high performance liquid chromatography (HPLC). The pharmacokinetics of lorazepam delivery via intranasal administration can then be compared with the pharmacokinetics of lorazepam delivery by intravenous administration.
In this Example, 10 mg of midazolam is dissolved in 2 mL of mPEG 350 using ultrasound to obtain a solution containing 5 mg/mL midazolam. 50 μL of the resulting composition is then administered into each nasal cavity of male New Zealand White rabbits, held in a supine position during, and then one minute after application. After administration, blood samples then are harvested from a marginal ear vein at 0, 2, 5, 10, 15, 30 and 60 minutes, and the midazolam concentration determined by HPLC. […]

[4] = nasal gel, carbopol in PEG 400, rats; cited from earlier work

Structure (SMILES) | Viscosity (cP) of component [1] [cP] | Pharmacokinetics of intranasal versus intravenous administration [3] | further results
CC(O)CO (stereo not drawn) [Propylene glycol] | 40 |  | 
O [Water] | 1 |  | 
O=C1Nc2ccc(Cl)cc2C(c2ccccc2Cl)=NC1O (stereo not drawn) [lorazepam] |  | comparable to those of the intravenously administered lorazepam | Time to peak concentration [2]: 2.3 h
Cc1ncc2n1-c1ccc(Cl)cc1C(c1ccccc1F)=NC2 [midazolam] |  | comparable to those of the intravenously administered midazolam | 
COC(=O)C1=C(C)NC(C)=C(C(=O)OC)C1c1ccccc1[N+](=O)[O-] [nifedipine] |  |  | Time to peak plasma concentration [4]: 30 min
